Data on 14 molecules can be found in patent US11505543B2, “4-oxo-3,4-dihydroquinazoline compounds as inhibitors of human immunodeficiency virus replication” (VIIV HEALTHCARE UK (NO.5) LIMITED, priority 2018, dated 2022).

SMILES strings stand for the structures.

The test system of series [1] is recombinant NL4-3 virus (nef section replaced with Renilla luciferase gene) in MT-2 cells. Description: HIV cell culture assay (antiviral activity, luciferase readout). In kind it is cell-based. Particulars: Renilla, NL43, MT-2 cells infected for 4-5 days with recombinant NL4-3 Renilla luciferase virus, serial dilutions of compound. The essentials:
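EC50 was derived by median-effect curve fitting of luciferase activity. The signal comes from MT-2 cells infected for 4–5 days with 293T-produced NL4-3 reporter virus, nef partly replaced by Renilla luciferase, in the presence of serially diluted compound.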

Series [2] is described as follows: Compound cytotoxicity, XTT-based colorimetric assay. In kind it is cell-based. Particulars: human, uninfected MT2 cells, day 4, XTT. A digest of the protocol:
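Run under the antiviral-assay protocol but without virus. Viability was read on day 4 and CC50 values were derived from the readout.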

The term EC50 denotes the concentration giving half of the maximal effect. In general, CC50 refers to the concentration at which the toxic effect on the cells reaches its halfway point. On to `COc1ccccc1-c1ccc2c(=O)n(-c3ccc(Cl)c4c(NS(C)(=O)=O)nn(C)c34)c([C@H](Cc3cc(F)cc(F)c3)NC(=O)Cn3nc(C(F)F)c4c3C(F)(F)[C@@H]3C[C@H]43)nc2c1` [Example 186, N-((S)-1-(3-(4-chloro-1-methyl-3-(methylsulfonamido)-1H-indazol-7-yl)-7-(2-methoxyphenyl)-4-oxo-3,4-dihydroquinazolin-2-yl)-2-(3,5-difluorophenyl)ethyl)-2-((3bS,4aR)-3-(difluoromethyl)-5,5-difluoro-3b,4,4a,5-tetrahydro-1H-cyclopropa[3,4]cyclopenta[1,2-c]pyrazol-1-yl)acetamide], for which the concentration for a half-maximal effect (EC50) in series [1] is 2.4 nM. Further, in series [2], the CC50 at 4 day is > 1000 nM.
The like results for `Cc1cc(C)nc(-c2ccc3c(=O)n(-c4ccc(Cl)c5c(NS(C)(=O)=O)nn(CC(F)(F)F)c45)c([C@H](Cc4cc(F)cc(F)c4)NC(=O)Cn4nc(C(F)F)c5c4C(F)(F)[C@@H]4C[C@H]54)nc3c2)n1` [Example 164, N-((S)-1-(3-(4-chloro-3-(methylsulfonamido)-1-(2,2,2-trifluoroethyl)-1H-indazol-7-yl)-7-(4,6-dimethylpyrimidin-2-yl)-4-oxo-3,4-dihydroquinazolin-2-yl)-2-(3,5-difluorophenyl)ethyl)-2-((3bS,4aR)-3-(difluoromethyl)-5,5-difluoro-3b,4,4a,5-tetrahydro-1H-cyclopropa[3,4]cyclopenta[1,2-c]pyrazol-1-yl)acetamide] were, in that order, 0.096 nM and > 500 nM.
The like results for `O=C(Cn1nc(C(F)F)c2c1C(F)(F)[C@H]1C[C@@H]21)N[C@@H](Cc1cc(F)cc(F)c1)c1nc2cc(-c3ncccn3)ccc2c(=O)n1-c1ccc(S(=O)(=O)N2CCOCC2)cc1` [Example 27, 2-((3bR,4aS)-3-(difluoromethyl)-5,5-difluoro-3b,4,4a,5-tetrahydro-1H-cyclopropa[3,4]cyclopenta[1,2-c]pyrazol-1-yl)-N-((S)-2-(3,5-difluorophenyl)-1-(3-(4-(morpholinosulfonyl)phenyl)-4-oxo-7-(pyrimidin-2-yl)-3,4-dihydroquinazolin-2-yl)ethyl)acetamide] were, in that order, 5.8 nM and > 1000 nM.
As for `Cn1nc(NS(C)(=O)=O)c2c(Cl)ccc(-n3c([C@H](Cc4cc(F)cc(F)c4)NC(=O)Cn4nc(C(F)F)c5c4C(F)(F)[C@@H]4C[C@H]54)nc4cc(-c5ccc(C(=O)O)c(Cl)c5)ccc4c3=O)c21` (atropisomer, axis not shown; (aR)) [Example 75, 2-chloro-4-(3-(4-chloro-1-methyl-3-(methylsulfonamido)-1H-indazol-7-yl)-2-((S)-1-(2-((3bS,4aR)-3-(difluoromethyl)-5,5-difluoro-3b,4,4a,5-tetrahydro-1H-cyclopropa[3,4]cyclopenta[1,2-c]pyrazol-1-yl)acetamido)-2-(3,5-difluorophenyl)ethyl)-4-oxo-3,4-dihydroquinazolin-7-yl)benzoic acid], the EC50 in series [1] amounted to 29 nM. Also, the 50% cytotoxic concentration (CC50) at 4 day in series [2] was > 1000 nM.
For the molecule `Cn1nc(NS(C)(=O)=O)c2c(Cl)ccc(-n3c([C@H](Cc4cc(F)cc(F)c4)NC(=O)Cn4nc(C(F)F)c5c4C(F)(F)[C@@H]4C[C@H]54)nc4cc(-c5ccc(F)c(C#N)c5)ccc4c3=O)c21` (atropisomer, axis not shown; (aR)) [Example 97, N-((S)-1-(3-(4-chloro-1-methyl-3-(methylsulfonamido)-1H-indazol-7-yl)-7-(3-cyano-4-fluorophenyl)-4-oxo-3,4-dihydroquinazolin-2-yl)-2-(3,5-difluorophenyl)ethyl)-2-((3bS,4aR)-3-(difluoromethyl)-5,5-difluoro-3b,4,4a,5-tetrahydro-1H-cyclopropa[3,4]cyclopenta[1,2-c]pyrazol-1-yl)acetamide], the half-maximal effective concentration (EC50) in series [1] was determined as 0.4 nM. In series [2], the half-maximal cytotoxic concentration (CC50) at 4 day was > 1000 nM.
The like results for `Cn1nc(NS(C)(=O)=O)c2c(Cl)ccc(-n3c([C@H](Cc4cc(F)cc(F)c4)NC(=O)Cn4nc(C(F)F)c5c4C(F)(F)[C@@H]4C[C@H]54)nc4cc(-c5ccc(Cl)c(C(=O)O)c5)ccc4c3=O)c21` (atropisomer, axis not shown; (aR)) [Example 57] were, in that order, 17 nM and > 1000 nM.
The like results for `COc1ccc(-c2ccc3c(=O)n(-c4ccc(Cl)c5c(NS(C)(=O)=O)nn(C)c45)c([C@H](Cc4cc(F)cc(F)c4)NC(=O)Cn4nc(C(F)F)c5c4C(F)(F)[C@@H]4C[C@H]54)nc3c2)cn1` (atropisomer, axis not shown; (aR)) [Example 58, N-((S)-1-(3-(4-chloro-1-methyl-3-(methylsulfonamido)-1H-indazol-7-yl)-7-(6-methoxypyridin-3-yl)-4-oxo-3,4-dihydroquinazolin-2-yl)-2-(3,5-difluorophenyl)ethyl)-2-((3bS,4aR)-3-(difluoromethyl)-5,5-difluoro-3b,4,4a,5-tetrahydro-1H-cyclopropa[3,4]cyclopenta[1,2-c]pyrazol-1-yl)acetamide] were, in that order, 0.34 nM and > 1000 nM.
The like results for `COc1cc(C)nc(-c2ccc3c(=O)n(-c4ccc(Cl)c5c(NS(C)(=O)=O)nn(C)c45)c([C@H](Cc4cc(F)cc(F)c4)NC(=O)Cn4nc(C(F)F)c5c4C(F)(F)[C@@H]4C[C@H]54)nc3c2)n1` (atropisomer, axis not shown; (aR)) [Example 131, N-((S)-1-(3-(4-chloro-1-methyl-3-(methylsulfonamido)-1H-indazol-7-yl)-7-(4-methoxy-6-methylpyrimidin-2-yl)-4-oxo-3,4-dihydroquinazolin-2-yl)-2-(3,5-difluorophenyl)ethyl)-2-((3bS,4aR)-3-(difluoromethyl)-5,5-difluoro-3b,4,4a,5-tetrahydro-1H-cyclopropa[3,4]cyclopenta[1,2-c]pyrazol-1-yl)acetamide] were, in that order, 0.11 nM and > 500 nM.
For the molecule `Cn1nc(NS(C)(=O)=O)c2c(Cl)ccc(-n3c([C@H](Cc4cc(F)cc(F)c4)NC(=O)Cn4nc(C(F)F)c5c4C(F)(F)[C@@H]4C[C@H]54)nc4cc(-c5cnc(F)c(F)c5)ccc4c3=O)c21` (atropisomer, axis not shown; (aR)) [Example 25, N-((S)-1-(3-(4-chloro-1-methyl-3-(methylsulfonamido)-1H-indazol-7-yl)-7-(5,6-difluoropyridin-3-yl)-4-oxo-3,4-dihydroquinazolin-2-yl)-2-(3,5-difluorophenyl)ethyl)-2-((3bS,4aR)-3-(difluoromethyl)-5,5-difluoro-3b,4,4a,5-tetrahydro-1H-cyclopropa[3,4]cyclopenta[1,2-c]pyrazol-1-yl)acetamide], the EC50 in series [1] amounted to 0.25 nM. The CC50 at 4 day in series [2] was > 1000 nM.
The like results for `Cn1nc(NS(C)(=O)=O)c2c(Cl)ccc(-n3c([C@H](Cc4cc(F)cc(F)c4)NC(=O)Cn4nc(C(F)F)c5c4C(F)(F)[C@@H]4C[C@H]54)nc4cc(-c5cccc(F)c5F)ccc4c3=O)c21` (atropisomer, axis not shown; (aR)) [Example 68, N-((S)-1-(3-(4-chloro-1-methyl-3-(methylsulfonamido)-1H-indazol-7-yl)-7-(2,3-difluorophenyl)-4-oxo-3,4-dihydroquinazolin-2-yl)-2-(3,5-difluorophenyl)ethyl)-2-((3bS,4aR)-3-(difluoromethyl)-5,5-difluoro-3b,4,4a,5-tetrahydro-1H-cyclopropa[3,4]cyclopenta[1,2-c]pyrazol-1-yl)acetamide] were, in that order, 0.63 nM and > 1000 nM.
The like results for `Cn1nc(NS(C)(=O)=O)c2c(Cl)ccc(-n3c([C@H](Cc4cc(F)cc(F)c4)NC(=O)Cn4nc(C(F)F)c5c4C(F)(F)[C@@H]4C[C@H]54)nc4cc(-c5ccc(C(=O)O)cc5)ccc4c3=O)c21` (atropisomer, axis not shown; (aR)) [Example 100, 4-(3-(4-chloro-1-methyl-3-(methylsulfonamido)-1H-indazol-7-yl)-2-((S)-1-(2-((3bS,4aR)-3-(difluoromethyl)-5,5-difluoro-3b,4,4a,5-tetrahydro-1H-cyclopropa[3,4]cyclopenta[1,2-c]pyrazol-1-yl)acetamido)-2-(3,5-difluorophenyl)ethyl)-4-oxo-3,4-dihydroquinazolin-7-yl)benzoic acid] were, in that order, 6.5 nM and > 1000 nM.
The like results for `O=C(Cn1ccc(C2CC2)n1)N[C@@H](Cc1cc(F)cc(F)c1)c1nc2cc(-c3ccc(F)cc3F)ccc2c(=O)n1-c1ccc(S(=O)(=O)N2CCOCC2)cc1` [Example 12, (S)-2-(3-cyclopropyl-1H-pyrazol-1-yl)-N-(2-(3,5-difluorophenyl)-1-(7-(2,4-difluorophenyl)-3-(4-(morpholinosulfonyl)phenyl)-4-oxo-3,4-dihydroquinazolin-2-yl)ethyl)acetamide] were, in that order, 8.3 nM and > 1000 nM.
Regarding `Cn1nc(NS(C)(=O)=O)c2c(Cl)ccc(-n3c([C@H](Cc4cc(F)cc(F)c4)NC(=O)Cn4nc(C(F)F)c5c4C(F)(F)[C@@H]4C[C@H]54)nc4cc(-c5ccc(Cl)c(F)c5)ccc4c3=O)c21` [Example 194, N-((S)-1-(3-(4-chloro-1-methyl-3-(methylsulfonamido)-1H-indazol-7-yl)-7-(4-chloro-3-fluorophenyl)-4-oxo-3,4-dihydroquinazolin-2-yl)-2-(3,5-difluorophenyl)ethyl)-2-((3bS,4aR)-3-(difluoromethyl)-5,5-difluoro-3b,4,4a,5-tetrahydro-1H-cyclopropa[3,4]cyclopenta[1,2-c]pyrazol-1-yl)acetamide], the EC50 in series [1] stood at 7.7 nM. Further, the CC50 at 4 day in series [2] was > 1000 nM.
With `Cc1ccccc1-c1ccc2c(=O)n(-c3ccc(S(=O)(=O)N4CCOCC4)cc3)c([C@H](Cc3cc(F)cc(F)c3)NC(=O)Cn3ccc(C4CC4)n3)nc2c1` [Example 143, (S)-2-(3-cyclopropyl-1H-pyrazol-1-yl)-N-(2-(3,5-difluorophenyl)-1-(3-(4-(morpholinosulfonyl)phenyl)-4-oxo-7-(o-tolyl)-3,4-dihydroquinazolin-2-yl)ethyl)acetamide], the EC50 in series [1] came to 42 nM. Further, the CC50 at 4 day in series [2] is > 1000 nM.
